Assay results taken from patent publication US6620801B2, “17β-amino and hydroxylamino-11β-arylsteroids and their derivatives having agonist or antagonist hormonal properties” (Research Triangle Institute, priority 1998, dated 2003).

Key:
immature female rabbits = assay: Anti-estrogenic activity, uterine weight in estradiol-treated immature female rabbits; format: in vivo, rabbit; conditions: ± S.E., no estradiol 216.7±37.2 mg
[1] = target: T1, human progesterone hormone receptor (Homo sapiens, UniProt P06401); assay: Receptor binding, inhibition of [3H]-R5020 binding in T-47D cytosol; conditions: cytosol from human T-47D breast cells, 0.4 nM [3H]-R5020, 4 hours at 4° C.; read-out: Relative Binding Affinity hPR IC50
T1 construct: The receptor was obtained in cytosol from human T-47D breast cells and [^3H]-R5020 was used as the radioligand; endogenous in cells; host or cells: human T-47D breast cells (cytosol, 34,000 x g supernatant)
T1 sequence (P06401 1-933): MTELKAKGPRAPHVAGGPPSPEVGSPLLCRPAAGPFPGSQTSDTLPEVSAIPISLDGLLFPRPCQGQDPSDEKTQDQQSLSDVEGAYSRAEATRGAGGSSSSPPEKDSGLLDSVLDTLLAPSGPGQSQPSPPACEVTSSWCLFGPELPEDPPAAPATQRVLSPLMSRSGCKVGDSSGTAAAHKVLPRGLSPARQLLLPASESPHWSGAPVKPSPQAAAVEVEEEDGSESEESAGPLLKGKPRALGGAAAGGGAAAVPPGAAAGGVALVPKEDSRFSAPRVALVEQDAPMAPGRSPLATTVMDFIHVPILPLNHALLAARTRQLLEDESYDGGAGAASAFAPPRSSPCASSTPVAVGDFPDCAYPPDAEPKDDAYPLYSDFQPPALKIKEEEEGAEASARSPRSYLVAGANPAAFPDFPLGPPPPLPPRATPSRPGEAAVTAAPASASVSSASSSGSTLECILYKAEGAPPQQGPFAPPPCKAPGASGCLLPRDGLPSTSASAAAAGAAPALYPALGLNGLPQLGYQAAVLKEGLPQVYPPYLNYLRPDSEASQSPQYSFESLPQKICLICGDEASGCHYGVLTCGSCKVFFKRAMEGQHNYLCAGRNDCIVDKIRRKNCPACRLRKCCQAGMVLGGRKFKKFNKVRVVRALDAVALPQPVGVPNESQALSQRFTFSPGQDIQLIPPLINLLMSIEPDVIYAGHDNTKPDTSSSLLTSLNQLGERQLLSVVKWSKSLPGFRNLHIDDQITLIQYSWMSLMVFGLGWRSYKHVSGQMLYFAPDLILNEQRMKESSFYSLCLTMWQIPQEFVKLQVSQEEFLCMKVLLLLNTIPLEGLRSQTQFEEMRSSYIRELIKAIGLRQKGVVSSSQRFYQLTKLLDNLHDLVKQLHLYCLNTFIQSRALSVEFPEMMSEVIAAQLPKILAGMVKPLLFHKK
Description: The receptor was obtained in cytosol from human T-47D breast cells and [^3H]-R5020 was used as the radioligand. T47D cells (1 billion/ml) were homogenized in TEDG buffer (10 mM Tris, 1.5 mM EDTA, 1 mM dithiothreitol, 1 mM sodium molybdate, and 10% glycerol) using a Dounce pestle A, and the homogenate was centrifuged at 34,000×g for 1 hour. The supernatant was stored at −80° C. An aliquot of receptor preparation was combined with test compound, 0.4 nM [^3H]-R5020, and TEDG buffer to a final volume of 150 μL and incubated for 4 hours at 4° C. in microtiter plates. At the end of incubation 40 μL 40% polyethylene glycol and 15 μL 1% human gamma globulin was added to the incubate and the contents of each well were harvested onto double thick B filter mats (Wallac LKB) using a TomTec harvester. A film of Meltilux scintillant wax was applied to the dried filter mats and the mats were counted in a scintillation counter to determine inhibition of [^3H]-R5020 binding. Data are expressed as IC50 values, i.e., the concentration of compound that inhibits radioligand binding by 50%.

rabbits [2] = assay: McGinty test (progestational/agonist activity, McPhail score); format: in vivo; design: McPhail Index, McGinty Assay (Agonist): scale not given here; conditions: rabbit; for McPhail Index, McGinty Assay (Agonist): test compound alone
From the text: (§1) Results were scored according to McPhail (McPhail, J. Physiol., 83: 146 (1934)). These are standard procedures well-known to those skilled in the art. The results of these assays are shown in Tables 2 (agonist activity) and 3 (antagonist activity). […] Some compounds were extremely potent in this regard.

rabbits [3] = assay: Anti-McGinty test (antiprogestational/antagonist activity, test compound plus progesterone, McPhail score); format: in vivo; design: McPhail Index, Anti-McGinty Assay (Antagonist): scale not given here; conditions: rabbit; for McPhail Index, Anti-McGinty Assay (Antagonist): test compound plus progesterone; for Blocking the action of progesterone in the anti-McGinty assay: dose of only 0.3 μg
From the text: as §1

IC50 [1]	SMILES	Uterine weight (immature female rabbits; estradiol alone, 5 μg per day)	McPhail Index, McGinty Assay (Agonist) (rabbits [2]; dose 0.3 micrograms)	McPhail Index, McGinty Assay (Agonist) (rabbits [2]; dose 3 micrograms)	McPhail Index, McGinty Assay (Agonist) (rabbits [2]; dose 30 micrograms)	McPhail Index, Anti-McGinty Assay (Antagonist) (rabbits [3]; dose 0.3 micrograms)	McPhail Index, Anti-McGinty Assay (Antagonist) (rabbits [3]; dose 3 micrograms)	McPhail Index, Anti-McGinty Assay (Antagonist) (rabbits [3]; dose 30 micrograms)	Progestational (agonist) activity in the McGinty assay (rabbits [2]; at high doses)	Progestational (agonist) activity in the anti-McGinty assay (rabbits [3]; at the highest dose)	Blocking the action of progesterone in the anti-McGinty assay (rabbits [3])	Uterine weight (immature female rabbits; compound orally at 10 mg/day concurrently with 5 μg of estradiol per day)
	C[C@]12CC[C@@H]3c4ccc(O)cc4CC[C@H]3[C@@H]1CC[C@@H]2O [estradiol, reference compound]	1337 ± 105 mg										
3.5 nM	CN(C)c1ccc(C2CC3(C)C(CCC34CCCN4O)C3CCC4=CC(=O)CCC4=C23)cc1 (stereo not drawn) [11β-[4-(N,N-Dimethylamino)phenyl]-1′-hydroxy-spiro[estra4,9-dien-17β,2′-pyrrolidine]-3-one]		0 ± 0	0 ± 0	0 ± 0	2.7 ± 0.0	2.3 ± 0.5	0.07 ± 0.07				
1.3 nM	CC#CC1(NC(C)=O)CCC2C3CCC4=CC(=O)CCC4=C3C(c3ccc(N(C)C)cc3)CC21C (stereo not drawn) [17β-(N-Acetamido)-11β-[4-(N,N-dimethylamino)phenyl]-17α-(1-propynyl)estra-4,9-dien-3-one]		0 ± 0	0 ± 0	0 ± 0	1.8 ± 0.3	0.1 ± 0.1	0 ± 0				
8.3 nM	CC#C[C@]1(N)CC[C@H]2[C@@H]3CCC4=CC(=O)CCC4=C3[C@@H](c3ccc(N(C)C)cc3)C[C@@]21C [17β-Amino-11β-[4-(N,N-dimethylamino)phenyl]-17α-(1-propynyl)estra-4,9-dien-3-one]		0 ± 0	0 ± 0	0 ± 0	1.6 ± 0.3	0.2 ± 0.1	0 ± 0				
14.3 nM	CC#C[C@]1(NO)CC[C@H]2[C@@H]3CCC4=CC(=O)CCC4=C3[C@@H](c3ccc(N(C)C)cc3)C[C@@]21C [11β-[4-(N,N-Dimethylamino)phenyl]-17β-(N-hydroxylamino)-17α-(1-propynyl)estra-4,9-dien-3-one]		0 ± 0	0 ± 0	0.7 ± 0.0	0 ± 0	0 ± 0	2.5 ± 0.4	some progestational (agonist) activity	some progestational (agonist) activity	completely effective in blocking the action of progesterone	
7.1 nM	CC#CC1(N(C)O)CCC2C3CCC4=CC(=O)CCC4=C3C(c3ccc(N(C)C)cc3)CC21C (stereo not drawn) [11β-[4-(N,N-Dimethylamino)phenyl]-17β-(N-hydroxy-N-methylamino)-17α-(1-propynyl)estra-4,9-dien-3-one]		0 ± 0	0 ± 0	0 ± 0	2.0 ± 0.2	0 ± 0	0 ± 0				
5.2 nM	CC1CCC2(CCC3C4CCC5=CC(=O)CCC5=C4C(c4ccc(N(C)C)cc4)CC32C)N1O (stereo not drawn) [11β-[4-(N,N-Dimethylamino)phenyl]-1′-hydroxy-5′-methyl-spiro[estra-4,9-dien-17β,2′-pyrrolidine]-3-one]		0 ± 0	0 ± 0	0 ± 0	2.1 ± 0.3	2.4 ± 0.4	0.7 ± 0.4				
0.7 nM	CC#C[C@]1(NC=O)CC[C@H]2[C@@H]3CCC4=CC(=O)CCC4=C3[C@@H](c3ccc(N(C)C)cc3)C[C@@]21C [11β-[4-(N,N-Dimethylamino)phenyl]-17β-(N-formamido)-17α-(1-propynyl)estra-4,9-dien-3-one]		0 ± 0	0 ± 0	0 ± 0	0 ± 0	0 ± 0	0 ± 0			completely effective in blocking the action of progesterone	716 ± 96.6 mg
